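Results reflect a 48-hour exposure of cells in 96-well plates to compound at five concentrations. TGI marks complete inhibition of growth.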

In the first assay the test system is MOLT-4 leukemia. In words: inhibition of tumour cell growth, NCI panel, 48 h.
In turn, `Cc1ccc(C(=O)c2nnc(C(=O)c3ccc(C)cc3)nn2)cc1` registered a TGI above 100 µM.
In turn, `COc1cc(C2C(C(=O)O)=C(CO)Oc3cc4c(cc32)OCO4)cc(OC)c1O` (configuration not stated) had a TGI above 100 µM.
`O=C1[C@H]2ON(c3ccccc3)C(c3ccccc3Cl)[C@H]2C(=O)N1c1ccc(Cc2ccc(N3C(=O)[C@@H]4ON(c5ccccc5)C(c5ccccc5Cl)[C@@H]4C3=O)cc2)cc1` (some centres not stated) yielded a TGI above 100 µM.
As to `COc1cc(Cn2c3ccccc3c3cc(C)c4c(c32)C=CC(C)(CCC=C(C)C)O4)cc2c1[nH]c1ccccc12` (configuration not stated), the TGI is above 100 µM.

The next assay concerns NCI-H226 lung. In words: inhibition of tumour cell growth, NCI panel, 48 h.
As to `Cc1ccc(C(=O)c2nnc(C(=O)c3ccc(C)cc3)nn2)cc1`, the TGI is above 100 µM.
Molecule `O=C1[C@H]2ON(c3ccccc3)C(c3ccccc3Cl)[C@H]2C(=O)N1c1ccc(Cc2ccc(N3C(=O)[C@@H]4ON(c5ccccc5)C(c5ccccc5Cl)[C@@H]4C3=O)cc2)cc1` (some centres not stated) registered a TGI above 100 µM.

A further assay relates to NCI-H23 lung. In words: inhibition of tumour cell growth, NCI panel, 48 h.
With `Cc1ccc(C(=O)c2nnc(C(=O)c3ccc(C)cc3)nn2)cc1`, the TGI is above 100 µM.
Regarding `O=C1[C@H]2ON(c3ccccc3)C(c3ccccc3Cl)[C@H]2C(=O)N1c1ccc(Cc2ccc(N3C(=O)[C@@H]4ON(c5ccccc5)C(c5ccccc5Cl)[C@@H]4C3=O)cc2)cc1` (some centres not stated), the TGI was above 100 µM.
With `COc1cc(Cn2c3ccccc3c3cc(C)c4c(c32)C=CC(C)(CCC=C(C)C)O4)cc2c1[nH]c1ccccc12` (configuration not stated), the TGI was above 100 µM.

A further assay deals with NCI-H460 lung. In words: inhibition of tumour cell growth, NCI panel, 48 h.
As for `Cc1ccc(C(=O)c2nnc(C(=O)c3ccc(C)cc3)nn2)cc1`, the TGI amounted to 33.8 µM.
`COc1cc(C2C(C(=O)O)=C(CO)Oc3cc4c(cc32)OCO4)cc(OC)c1O` (configuration not stated) had a TGI above 100 µM.
Turning to `O=C1[C@H]2ON(c3ccccc3)C(c3ccccc3Cl)[C@H]2C(=O)N1c1ccc(Cc2ccc(N3C(=O)[C@@H]4ON(c5ccccc5)C(c5ccccc5Cl)[C@@H]4C3=O)cc2)cc1` (some centres not stated), the TGI is above 100 µM.
For the molecule `COc1cc(Cn2c3ccccc3c3cc(C)c4c(c32)C=CC(C)(CCC=C(C)C)O4)cc2c1[nH]c1ccccc12` (configuration not stated), the TGI is above 100 µM.

The next assay relates to NCI-H522 lung. In words: inhibition of tumour cell growth, NCI panel, 48 h.
Molecule `Cc1ccc(C(=O)c2nnc(C(=O)c3ccc(C)cc3)nn2)cc1` registered a TGI above 100 µM.
Turning to `O=C1[C@H]2ON(c3ccccc3)C(c3ccccc3Cl)[C@H]2C(=O)N1c1ccc(Cc2ccc(N3C(=O)[C@@H]4ON(c5ccccc5)C(c5ccccc5Cl)[C@@H]4C3=O)cc2)cc1` (some centres not stated), the TGI is above 100 µM.
Regarding `COc1cc(Cn2c3ccccc3c3cc(C)c4c(c32)C=CC(C)(CCC=C(C)C)O4)cc2c1[nH]c1ccccc12` (configuration not stated), the TGI was above 100 µM.

The next assay concerns OVCAR-3 ovarian. In words: inhibition of tumour cell growth, NCI panel, 48 h.
Molecule `Cc1ccc(C(=O)c2nnc(C(=O)c3ccc(C)cc3)nn2)cc1` had a TGI above 100 µM.
Same read-out and setting: to `COc1cc(C2C(C(=O)O)=C(CO)Oc3cc4c(cc32)OCO4)cc(OC)c1O` (configuration not stated) belongs above 100 µM; to `O=C1[C@H]2ON(c3ccccc3)C(c3ccccc3Cl)[C@H]2C(=O)N1c1ccc(Cc2ccc(N3C(=O)[C@@H]4ON(c5ccccc5)C(c5ccccc5Cl)[C@@H]4C3=O)cc2)cc1` (some centres not stated), above 100 µM; to `COc1cc(Cn2c3ccccc3c3cc(C)c4c(c32)C=CC(C)(CCC=C(C)C)O4)cc2c1[nH]c1ccccc12` (configuration not stated), above 100 µM.

A further assay deals with OVCAR-4 ovarian. In words: inhibition of tumour cell growth, NCI panel, 48 h.
`Cc1ccc(C(=O)c2nnc(C(=O)c3ccc(C)cc3)nn2)cc1` displayed a TGI above 100 µM.
Same read-out and setting: in the case of `COc1cc(C2C(C(=O)O)=C(CO)Oc3cc4c(cc32)OCO4)cc(OC)c1O` (configuration not stated) it was above 100 µM.
`O=C1[C@H]2ON(c3ccccc3)C(c3ccccc3Cl)[C@H]2C(=O)N1c1ccc(Cc2ccc(N3C(=O)[C@@H]4ON(c5ccccc5)C(c5ccccc5Cl)[C@@H]4C3=O)cc2)cc1` (some centres not stated): the TGI was above 100 µM.
The same measure, in the same setting: to `COc1cc(Cn2c3ccccc3c3cc(C)c4c(c32)C=CC(C)(CCC=C(C)C)O4)cc2c1[nH]c1ccccc12` (configuration not stated) belongs above 100 µM.

The subject of a further assay is OVCAR-5 ovarian. In words: inhibition of tumour cell growth, NCI panel, 48 h.
For `Cc1ccc(C(=O)c2nnc(C(=O)c3ccc(C)cc3)nn2)cc1`, the TGI is above 100 µM.
On the same count and under the same terms, in the case of `O=C1[C@H]2ON(c3ccccc3)C(c3ccccc3Cl)[C@H]2C(=O)N1c1ccc(Cc2ccc(N3C(=O)[C@@H]4ON(c5ccccc5)C(c5ccccc5Cl)[C@@H]4C3=O)cc2)cc1` (some centres not stated) it was above 100 µM.
`COc1cc(Cn2c3ccccc3c3cc(C)c4c(c32)C=CC(C)(CCC=C(C)C)O4)cc2c1[nH]c1ccccc12` (configuration not stated) came in with a TGI above 100 µM.

A further assay relates to OVCAR-8 ovarian. In words: inhibition of tumour cell growth, NCI panel, 48 h.
Turning to `Cc1ccc(C(=O)c2nnc(C(=O)c3ccc(C)cc3)nn2)cc1`, the TGI is above 100 µM.
As for `COc1cc(C2C(C(=O)O)=C(CO)Oc3cc4c(cc32)OCO4)cc(OC)c1O` (configuration not stated), the TGI was above 100 µM.
`O=C1[C@H]2ON(c3ccccc3)C(c3ccccc3Cl)[C@H]2C(=O)N1c1ccc(Cc2ccc(N3C(=O)[C@@H]4ON(c5ccccc5)C(c5ccccc5Cl)[C@@H]4C3=O)cc2)cc1` (some centres not stated) showed a TGI above 100 µM.
`COc1cc(Cn2c3ccccc3c3cc(C)c4c(c32)C=CC(C)(CCC=C(C)C)O4)cc2c1[nH]c1ccccc12` (configuration not stated) came in with a TGI above 100 µM.

For the next assay, the system named is RPMI-8226 leukemia. In words: inhibition of tumour cell growth, NCI panel, 48 h.
For `Cc1ccc(C(=O)c2nnc(C(=O)c3ccc(C)cc3)nn2)cc1`, the TGI was above 100 µM.
`COc1cc(C2C(C(=O)O)=C(CO)Oc3cc4c(cc32)OCO4)cc(OC)c1O` (configuration not stated) came in with a TGI above 100 µM.
For the molecule `O=C1[C@H]2ON(c3ccccc3)C(c3ccccc3Cl)[C@H]2C(=O)N1c1ccc(Cc2ccc(N3C(=O)[C@@H]4ON(c5ccccc5)C(c5ccccc5Cl)[C@@H]4C3=O)cc2)cc1` (some centres not stated), the TGI was above 100 µM.
Molecule `COc1cc(Cn2c3ccccc3c3cc(C)c4c(c32)C=CC(C)(CCC=C(C)C)O4)cc2c1[nH]c1ccccc12` (configuration not stated) yielded a TGI above 100 µM.

Another assay concerns RXF 393 renal. In words: inhibition of tumour cell growth, NCI panel, 48 h.
In turn, `COc1cc(Cn2c3ccccc3c3cc(C)c4c(c32)C=CC(C)(CCC=C(C)C)O4)cc2c1[nH]c1ccccc12` (configuration not stated) registered a TGI above 100 µM.

In the next assay the test system is SF-268 CNS. In words: inhibition of tumour cell growth, NCI panel, 48 h.
As to `Cc1ccc(C(=O)c2nnc(C(=O)c3ccc(C)cc3)nn2)cc1`, the TGI was found to be 55.4 µM.
`O=C1[C@H]2ON(c3ccccc3)C(c3ccccc3Cl)[C@H]2C(=O)N1c1ccc(Cc2ccc(N3C(=O)[C@@H]4ON(c5ccccc5)C(c5ccccc5Cl)[C@@H]4C3=O)cc2)cc1` (some centres not stated) came in with a TGI above 100 µM.
For the molecule `COc1cc(Cn2c3ccccc3c3cc(C)c4c(c32)C=CC(C)(CCC=C(C)C)O4)cc2c1[nH]c1ccccc12` (configuration not stated), the TGI is above 100 µM.

Another assay relates to SF-295 CNS. In words: inhibition of tumour cell growth, NCI panel, 48 h.
Take `Cc1ccc(C(=O)c2nnc(C(=O)c3ccc(C)cc3)nn2)cc1`: the TGI is above 100 µM.
Turning to `COc1cc(C2C(C(=O)O)=C(CO)Oc3cc4c(cc32)OCO4)cc(OC)c1O` (configuration not stated), the TGI is above 100 µM.
Molecule `O=C1[C@H]2ON(c3ccccc3)C(c3ccccc3Cl)[C@H]2C(=O)N1c1ccc(Cc2ccc(N3C(=O)[C@@H]4ON(c5ccccc5)C(c5ccccc5Cl)[C@@H]4C3=O)cc2)cc1` (some centres not stated) gave a TGI above 100 µM.
Take `COc1cc(Cn2c3ccccc3c3cc(C)c4c(c32)C=CC(C)(CCC=C(C)C)O4)cc2c1[nH]c1ccccc12` (configuration not stated): the TGI was above 100 µM.

The subject of a further assay is SF-539 CNS. In words: inhibition of tumour cell growth, NCI panel, 48 h.
`Cc1ccc(C(=O)c2nnc(C(=O)c3ccc(C)cc3)nn2)cc1` showed a TGI above 100 µM.
The same measure, in the same setting: in the case of `COc1cc(C2C(C(=O)O)=C(CO)Oc3cc4c(cc32)OCO4)cc(OC)c1O` (configuration not stated) it was above 100 µM.
In turn, `O=C1[C@H]2ON(c3ccccc3)C(c3ccccc3Cl)[C@H]2C(=O)N1c1ccc(Cc2ccc(N3C(=O)[C@@H]4ON(c5ccccc5)C(c5ccccc5Cl)[C@@H]4C3=O)cc2)cc1` (some centres not stated) displayed a TGI above 100 µM.
Still for that read-out and setting: to `COc1cc(Cn2c3ccccc3c3cc(C)c4c(c32)C=CC(C)(CCC=C(C)C)O4)cc2c1[nH]c1ccccc12` (configuration not stated) belongs above 100 µM.

The test system of the next assay is SK-MEL-2 melanoma. In words: inhibition of tumour cell growth, NCI panel, 48 h.
Turning to `Cc1ccc(C(=O)c2nnc(C(=O)c3ccc(C)cc3)nn2)cc1`, the TGI is above 100 µM.
The molecule `O=C1[C@H]2ON(c3ccccc3)C(c3ccccc3Cl)[C@H]2C(=O)N1c1ccc(Cc2ccc(N3C(=O)[C@@H]4ON(c5ccccc5)C(c5ccccc5Cl)[C@@H]4C3=O)cc2)cc1` (some centres not stated) showed a TGI above 100 µM.
In the case of `COc1cc(Cn2c3ccccc3c3cc(C)c4c(c32)C=CC(C)(CCC=C(C)C)O4)cc2c1[nH]c1ccccc12` (configuration not stated), the TGI is above 100 µM.

In a further assay the test system is SK-MEL-28 melanoma. In words: inhibition of tumour cell growth, NCI panel, 48 h.
`Cc1ccc(C(=O)c2nnc(C(=O)c3ccc(C)cc3)nn2)cc1` had a TGI above 100 µM.
`COc1cc(C2C(C(=O)O)=C(CO)Oc3cc4c(cc32)OCO4)cc(OC)c1O` (configuration not stated) registered a TGI above 100 µM.

(Values after PubChem BioAssay (NCI).)
